Test results from ChEMBL document CHEMBL1132250, “Synthesis of classical and a nonclassical 2-amino-4-oxo-6-methyl-5-substituted pyrrolo[2,3-d]pyrimidine antifolate inhibitors of thymidylate synthase” (J Med Chem, 1999).

Experiments:
Thymidylate synthase [1] = target: T1, Thymidylate synthase (Lactobacillus casei, UniProt P00469); assay: Compound was evaluated for the inhibition at a given concentration against Lactobacillus casei Thymidylate synthase; set-up: species or system Lacticaseibacillus casei
T1 sequence (P00469 whole entry): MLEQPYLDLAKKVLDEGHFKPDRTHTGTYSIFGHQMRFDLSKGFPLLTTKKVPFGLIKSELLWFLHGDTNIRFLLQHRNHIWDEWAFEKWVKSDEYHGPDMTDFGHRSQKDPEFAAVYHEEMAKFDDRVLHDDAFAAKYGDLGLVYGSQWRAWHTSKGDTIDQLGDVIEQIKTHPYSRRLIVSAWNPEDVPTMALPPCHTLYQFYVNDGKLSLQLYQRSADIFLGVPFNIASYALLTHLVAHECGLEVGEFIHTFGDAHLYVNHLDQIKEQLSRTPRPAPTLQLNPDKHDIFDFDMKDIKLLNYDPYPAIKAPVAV

Thymidylate synthase [2] = target: T2, Thymidylate synthase (Homo sapiens, UniProt P04818); assay: Compound was evaluated for the inhibition at a given concentration against recombinant human TS
T2 sequence (P04818 whole entry): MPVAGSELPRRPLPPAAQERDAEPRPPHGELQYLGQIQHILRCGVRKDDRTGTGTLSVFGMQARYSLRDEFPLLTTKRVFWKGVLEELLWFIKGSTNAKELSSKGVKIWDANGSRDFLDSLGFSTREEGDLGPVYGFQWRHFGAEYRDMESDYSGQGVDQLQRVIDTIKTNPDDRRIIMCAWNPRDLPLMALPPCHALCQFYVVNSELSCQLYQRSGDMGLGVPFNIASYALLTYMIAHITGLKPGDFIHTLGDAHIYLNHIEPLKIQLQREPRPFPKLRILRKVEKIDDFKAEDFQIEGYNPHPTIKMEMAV

Thymidylate synthase [3] = target: T1, Thymidylate synthase; assay: Compound was evaluated for the inhibition at a given concentration against Lactobacillus casei TS; set-up: species or system Lacticaseibacillus casei
Thymidylate synthase [4] = target: T2, Thymidylate synthase; assay: Compound was evaluated for the inhibition at a given concentration against recombinant human Thymidylate synthase

Structure (SMILES) | IC50 (Thymidylate synthase [1]) | IC50 (Thymidylate synthase [2]) | IC50 (Thymidylate synthase [3]) | IC50 (Thymidylate synthase [4])
Cc1[nH]c2nc(N)[nH]c(=O)c2c1Sc1ccc(C(=O)NC(CCC(=O)O)C(=O)O)cc1 (configuration not stated) | 0.021 µM |  |  | 
Cc1[nH]c2nc(N)[nH]c(=O)c2c1CNCc1ccc(C(=O)N[C@H](CCC(=O)O)C(=O)O)cc1 | 360 µM |  |  | 
Cc1[nH]c2nc(N)nc(O)c2c1CSc1ccncc1 | > 26 µM |  |  | > 25 µM

Now from value to molecule:

IC50 (Thymidylate synthase [1]) | IC50 (Thymidylate synthase [2]) | IC50 (Thymidylate synthase [3]) | IC50 (Thymidylate synthase [4]) | Structure (SMILES)
90 µM |  |  |  | C#CCN(Cc1c(C)[nH]c2nc(N)nc(O)c12)c1ccc(C(=O)N[C@H](CCC(=O)O)C(=O)O)cc1
 | 180 µM | 180 µM |  | Cc1[nH]c2nc(N)nc(O)c2c1CNc1ccc(C(=O)N[C@H](CCC(=O)O)C(=O)O)cc1
